What is called EC50 is the midpoint of the concentration-response curve.

Chain of recombinant IL4I1 (Q96RQ9 22-567): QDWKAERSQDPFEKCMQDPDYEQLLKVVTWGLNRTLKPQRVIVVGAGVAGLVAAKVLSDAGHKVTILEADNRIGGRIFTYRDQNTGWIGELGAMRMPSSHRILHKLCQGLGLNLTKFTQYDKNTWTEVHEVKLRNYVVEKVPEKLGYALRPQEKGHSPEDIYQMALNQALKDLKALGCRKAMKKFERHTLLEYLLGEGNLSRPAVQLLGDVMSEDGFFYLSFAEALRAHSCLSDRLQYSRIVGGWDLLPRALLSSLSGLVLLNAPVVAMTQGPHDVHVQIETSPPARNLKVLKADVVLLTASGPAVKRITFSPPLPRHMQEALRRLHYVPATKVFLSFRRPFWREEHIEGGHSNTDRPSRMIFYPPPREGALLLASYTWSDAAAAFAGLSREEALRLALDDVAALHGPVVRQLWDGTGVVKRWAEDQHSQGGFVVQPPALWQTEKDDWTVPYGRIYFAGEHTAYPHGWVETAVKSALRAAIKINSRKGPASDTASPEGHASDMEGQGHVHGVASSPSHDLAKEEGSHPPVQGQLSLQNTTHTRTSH

In this experiment the target is recombinant IL4I1 (Homo sapiens (Human), UniProt Q96RQ9). Description: IL4I1 Enzymatic Assay (Amplex Red/HRP coupled fluorescence detection of H2O2). As to conditions: 240 min; recombinant IL4I1, four-hour pre-incubation with compound. Type of experiment: biochemical. The method, boiled down:
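Recombinant human IL4I1 (1 nM final) pre-incubated 4 h with compound at ambient temperature in 50 mM Hepes pH 7.0, 0.005% Tween20. Started with 1 mM each Phe/Tyr/Trp plus Amplex Red/HRP; H2O2-derived resorufin fluorescence read after 120 min; EC50 from ten-point 1:3 titration, four-parameter fit.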
Turning to `O=C1C(=O)N(C23CC(F)(C2)C3)CCN1Cc1ccc(-n2cccn2)cn1` [Example 250, 1-((5-(1H-pyrazol-1-yl)pyridin-2-yl)methyl)-4-(3-fluorobicyclo[1.1.1]pentan-1-yl)piperazine-2,3-dione], the EC50 was determined as 240 nM.

Consider `O=c1c(=O)n(C2(CF)CC2)ccn1Cc1ccc(-c2ccccn2)cn1` [Example 251, 1-([2,3′-bipyridin]-6′-ylmethyl)-4-(1-(fluoromethyl)cyclopropyl)-1,4-dihydropyrazine-2,3-dione], for which the EC50 stood at 100 nM. Then `O=C1C(=O)N(C23CC(F)(C2)C3)CCN1Cc1cc(-c2ccccn2)on1` [Example 252, 1-(3-fluorobicyclo[1.1.1]pentan-1-yl)-4-((5-(pyridin-2-yl)isoxazol-3-yl)methyl)piperazine-2,3-dione], with 38 nM; and `O=c1c(=O)n(C2(CF)CC2)ccn1Cc1cc(-c2cccnc2)on1` [Example 253, 1-(1-(fluoromethyl)cyclopropyl)-4-((5-(pyridin-3-yl)isoxazol-3-yl)methyl)-1,4-dihydropyrazine-2,3-dione], with 45 nM; and `O=C1C(=O)N(C23CC(F)(C2)C3)CCN1Cc1ccc(-c2ccccn2)cn1` [Example 254, 1-([2,3′-bipyridin]-6′-ylmethyl)-4-(3-fluorobicyclo[1.1.1]pentan-1-yl)piperazine-2,3-dione], with 93 nM. `O=c1c(=O)n(C23CC(F)(C2)C3)ccn1Cc1ccc(-n2nccn2)nc1` [Example 255, 1-((6-(2H-1,2,3-triazol-2-yl)pyridin-3-yl)methyl)-4-(3-fluorobicyclo[1.1.1]pentan-1-yl)-1,4-dihydropyrazine-2,3-dione]: the EC50 is 47 nM.

For the compound `O=C1C(=O)N(C23CC(F)(C2)C3)CCN1Cc1cc(-c2cccnc2)on1` [Example 256, 1-(3-fluorobicyclo[1.1.1]pentan-1-yl)-4-((5-(pyridin-3-yl)isoxazol-3-yl)methyl)piperazine-2,3-dione], the EC50 was found to be 533 nM. As for `O=c1c(=O)n(C2(CF)CC2)ccn1Cc1cn(-c2ccccn2)nn1` [Example 257, 1-(1-(fluoromethyl)cyclopropyl)-4-((1-(pyridin-2-yl)-1H-1,2,3-triazol-4-yl)methyl)-1,4-dihydropyrazine-2,3-dione], the figure is 68 nM; as for `N#CC1(n2ccn(Cc3cn(-c4ccccn4)nn3)c(=O)c2=O)CC1` [Example 258, 1-(2,3-dioxo-4-((1-(pyridin-2-yl)-1H-1,2,3-triazol-4-yl)methyl)-3,4-dihydropyrazin-1(2H)-yl)cyclopropane-1-carbonitrile], 78 nM. As for `O=C1C(=O)N(C23CC(F)(C2)C3)CCN1Cc1cn(-c2ccccn2)nn1` [Example 259, 1-(3-fluorobicyclo[1.1.1]pentan-1-yl)-4-((1-(pyridin-2-yl)-1H-1,2,3-triazol-4-yl)methyl)piperazine-2,3-dione], the figure is 78 nM; as for `O=c1c(=O)n(C23CC(F)(C2)C3)ccn1Cc1cn(-c2ccccn2)nn1` [Example 260, 1-(3-fluorobicyclo[1.1.1]pentan-1-yl)-4-((1-(pyridin-2-yl)-1H-1,2,3-triazol-4-yl)methyl)-1,4-dihydropyrazine-2,3-dione], 38 nM; as for `O=c1c(=O)n(C2(CF)CC2)ccn1Cc1ccc(-n2ccnn2)cn1` [Example 261, 1-((5-(1H-1,2,3-triazol-1-yl)pyridin-2-yl)methyl)-4-(1-(fluoromethyl)cyclopropyl)-1,4-dihydropyrazine-2,3-dione], 178 nM.

As for `O=c1c(=O)n(C23CC(F)(C2)C3)ccn1Cc1ccc(-n2ccnn2)cn1` [Example 262, 1-((5-(1H-1,2,3-triazol-1-yl)pyridin-2-yl)methyl)-4-(3-fluorobicyclo[1.1.1]pentan-1-yl)-1,4-dihydropyrazine-2,3-dione], the concentration giving a half-maximal response (EC50) came to 868 nM.

Consider `O=C1C(=O)N(C23CC(F)(C2)C3)CCN1Cc1ccc(-n2ccnn2)cn1` [Example 263, 1-((5-(1H-1,2,3-triazol-1-yl)pyridin-2-yl)methyl)-4-(3-fluorobicyclo[1.1.1]pentan-1-yl)piperazine-2,3-dione], for which the EC50 came to 995 nM. Then `O=c1c(=O)n(C2(CF)CC2)ccn1Cc1ccc(-n2nccn2)nc1` [Example 264, 1-((6-(2H-1,2,3-triazol-2-yl)pyridin-3-yl)methyl)-4-(1-(fluoromethyl)cyclopropyl)-1,4-dihydropyrazine-2,3-dione], with 73 nM; and `O=C1C(=O)N(C23CC(F)(C2)C3)CCN1Cc1ccc(-n2nccn2)nc1` [Example 265, 1-((6-(2H-1,2,3-triazol-2-yl)pyridin-3-yl)methyl)-4-(3-fluorobicyclo[1.1.1]pentan-1-yl)piperazine-2,3-dione], with 114 nM.

Take `O=C1C(=O)N([C@H]2C[C@@H](c3ccccc3)C2)CCN1Cc1ccc(-c2ccccc2)nc1` [Example 266A, cis-1-(3-phenylcyclobutyl)-4-((6-phenylpyridin-3-yl)methyl)piperazine-2,3-dione]: the EC50 stood at 4 nM.

For `O=C1C(=O)N([C@H]2C[C@H](c3ccccc3)C2)CCN1Cc1ccc(-c2ccccc2)nc1` [Example 266B, trans-1-(3-phenylcyclobutyl)-4-((6-phenylpyridin-3-yl)methyl)piperazine-2,3-dione], the EC50 was 4 nM. Consider `O=C1C(=O)N(C2CCCC2)CCN1Cc1ccc(-c2ccccc2)[n+]([O-])c1` [Example 267, 5-((4-cyclopentyl-2,3-dioxopiperazin-1-yl)methyl)-2-phenylpyridine 1-oxide], for which the EC50 was determined as 57 nM. Consider `O=C1C(=O)N(C2CCCC2)CCN1CCc1cc2ccc(Cl)cc2nn1` [Example 268, 1-(2-(7-chlorocinnolin-3-yl)ethyl)-4-cyclopentylpiperazine-2,3-dione], for which the EC50 stood at 15 nM.

On to `O=C1C(=O)N(C2CCCC2)CCN1CCc1cc2ccccc2nn1` [Example 269, 1-(2-(cinnolin-3-yl)ethyl)-4-cyclopentylpiperazine-2,3-dione], for which the EC50 came to 49 nM. Take `O=C1C(=O)N(C2CCCC2)CCN1Cc1cnc(-c2ccccc2)nc1` [Example 270, 1-cyclopentyl-4-((2-phenylpyrimidin-5-yl)methyl)piperazine-2,3-dione]: the concentration for a half-maximal effect (EC50) was 24 nM.

For the compound `O=C1C(=O)N(C2CCCC2)CCN1Cc1cnc(-c2ccccc2)cn1` [Example 271, 1-cyclopentyl-4-((5-phenylpyrazin-2-yl)methyl)piperazine-2,3-dione], the EC50 amounted to 14 nM.

As to `O=C1C(=O)N(C2CCCC2)CCN1Cc1ccc2cc[nH]c(=O)c2c1` [Example 272, 1-cyclopentyl-4-((1-oxo-1,2-dihydroisoquinolin-7-yl)methyl)piperazine-2,3-dione], the EC50 was 35 nM. On to `O=C1C(=O)N(C2CCCC2)CCN1Cc1cnn(-c2ccccc2)c1` [Example 273, 1-cyclopentyl-4-((1-phenyl-1H-pyrazol-4-yl)methyl)piperazine-2,3-dione], for which the EC50 was 19 nM. As for `O=C1C(=O)N(C2CCCC2)CCN1Cc1cc(-c2ccccc2)n[nH]1` [Example 274, 1-cyclopentyl-4-((3-phenyl-1H-pyrazol-5-yl)methyl)piperazine-2,3-dione], the figure is 34 nM; as for `O=C1NCCc2ccc(CN3CCN(C4CCCC4)C(=O)C3=O)cc21` [Example 275, 1-cyclopentyl-4-((1-oxo-1,2,3,4-tetrahydroisoquinolin-7-yl)methyl)piperazine-2,3-dione], 20 nM; as for `O=C1C(=O)N(C23CC(C2)C3)CCN1Cc1ncc(-c2ccccc2)cn1` [Example 276, 1-(bicyclo[1.1.1]pentan-1-yl)-4-((5-phenylpyrimidin-2-yl)methyl)piperazine-2,3-dione], 26 nM. As for `O=C1C(=O)N(C2CCC2)CCN1Cc1ncc(-c2ccccc2)cn1` [Example 277, 1-cyclobutyl-4-((5-phenylpyrimidin-2-yl)methyl)piperazine-2,3-dione], the figure is 24 nM; as for `O=C1C(=O)N([C@H]2C[C@H]3C[C@H]3C2)CCN1Cc1ncc(-c2ccccc2)cn1` [Example 278, 1-((cis)-bicyclo[3.1.0]hexan-3-yl)-4-((5-phenylpyrimidin-2-yl)methyl)piperazine-2,3-dione], 16 nM; as for `O=C1C(=O)N(C2CCOC2)CCN1Cc1ncc(-c2ccccc2)cn1` (stereo not shown) [Example 279, 1-((5-phenylpyrimidin-2-yl)methyl)-4-(tetrahydrofuran-3-yl)piperazine-2,3-dione], 68 nM. Then `O=C1C(=O)N(CC2CC2)CCN1Cc1ncc(-c2ccccc2)cn1` [Example 280, 1-(cyclopropylmethyl)-4-((5-phenylpyrimidin-2-yl)methyl)piperazine-2,3-dione], with 38 nM. Turning to `O=C1C(=O)N(CC2CCC2)CCN1Cc1ncc(-c2ccccc2)cn1` [Example 281, 1-(cyclobutylmethyl)-4-((5-phenylpyrimidin-2-yl)methyl)piperazine-2,3-dione], the EC50 was found to be 35 nM. As for `CC1CCC1N1CCN(Cc2ncc(-c3ccccc3)cn2)C(=O)C1=O` (stereo not shown) [Example 282, 1-(2-methylcyclobutyl)-4-((5-phenylpyrimidin-2-yl)methyl)piperazine-2,3-dione], the figure is 30 nM. `O=C1C(=O)N([C@H]2C[C@H]3C[C@H]3C2)CCN1Cc1nnc(-c2ccccc2)s1` [Example 283, 1-((cis)-bicyclo[3.1.0]hexan-3-yl)-4-((5-phenyl-1,3,4-thiadiazol-2-yl)methyl)piperazine-2,3-dione]: the EC50 was 7 nM. `O=C1C(=O)N(C2C[C@@H]3C[C@@H]3C2)CCN1Cc1ccc(-c2ccccc2)nn1` (stereo partly drawn) [Example 284, 1-((cis)-bicyclo[3.1.0]hexan-3-yl)-4-((6-phenylpyridazin-3-yl)methyl)piperazine-2,3-dione]: the EC50 turned out to be 8 nM. As for `N#CC1CC(N2CCN(Cc3nnc(-c4ccccc4)s3)C(=O)C2=O)C1` (stereo not shown) [Example 285, 3-(2,3-dioxo-4-((5-phenyl-1,3,4-thiadiazol-2-yl)methyl)piperazin-1-yl)cyclobutane-1-carbonitrile], the figure is 28 nM.

The values above are taken from US20240246937A1 (MERCK SHARP & DOHME LLC, priority 2021, published 2024).
